Our source for the inhibition, Kd and IC50 values is patent US12152030B2 (NOVOSTAR PHARMACEUTICALS, LTD., priority 2019, dated 2024).

Where a name gives a salt, the structure may show the parent alone.

As a reminder, the inhibition is the relative decrease from the control value, in per cent. High values mean strong suppression, low ones little suppression. Broadly, the Kd is the free concentration of one partner at which half of the binding sites on the other are occupied at equilibrium, for simple one-to-one binding. A word on the IC50: it is the concentration that inhibits the measured activity by half.

For assay [1], the target named is T1, MNK1 (Homo sapiens, UniProt Q9BUB5). The experiment in a line: KinomeScan, MNK1. The assay is classed as binding. An excerpt:
(§1) KinomeScan was used to determine the kinase selectivity of compound 2.

The next assay has as its target T2, STK17A/DRAK1 (Homo sapiens, UniProt Q9UEE5).
T2 sequence (Q9UEE5 1-414): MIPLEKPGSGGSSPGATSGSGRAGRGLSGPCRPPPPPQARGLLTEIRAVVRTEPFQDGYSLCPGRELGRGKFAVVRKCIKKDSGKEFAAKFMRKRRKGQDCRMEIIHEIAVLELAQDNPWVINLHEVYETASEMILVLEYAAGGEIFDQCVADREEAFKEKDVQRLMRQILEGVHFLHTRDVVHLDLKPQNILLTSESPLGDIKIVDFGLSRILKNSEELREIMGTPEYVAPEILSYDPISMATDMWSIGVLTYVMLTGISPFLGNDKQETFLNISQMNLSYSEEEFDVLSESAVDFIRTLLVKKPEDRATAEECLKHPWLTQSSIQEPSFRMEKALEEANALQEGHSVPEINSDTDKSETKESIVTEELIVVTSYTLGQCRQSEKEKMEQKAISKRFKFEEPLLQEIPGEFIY
As to the kind of experiment: KinomeScan, DRAK1. It is filed as binding.
Text: as §1

The target in assay [2] is T1, MNK1. As to the kind of experiment: MNK biological enzyme assay (HTRF kinase assay), MNK1. It is filed as biochemical. Set-up: purchased ThermoFisher PV6023. As to conditions: 3 ng/ul MNK1, 1 μM STK1 peptide, 100 μM ATP. On the procedure: (§2) A HTRF kinase assay kit (Cisbio, catalog number 62ST1PEB) was used to determine the MNK inhibitory activity of the compounds. All kinase reactions were performed in the reaction buffer (provided in the kit). The final MNK1 reaction involved 3 ng/ul recombinant MNK1 (ThermoFisher, PV6023), 1 μM MNK substrate peptide STK1 (provided in the kit), 100 μM ATP, and different concentrations of the inhibitory compounds of interest. The final MNK2 reaction involved 1 ng/μl recombinant MNK2 (ThermoFisher, PV5607), 1 μM MNK substrate peptide STK1 (provided in the kit), 100 μM ATP, and different concentrations of the inhibitory compounds of interest. The final DMSO concentration in each of the reactions was 1%.
(§3) The kinase reaction was performed in a final volume of 10 μl in a 384-well white flat-bottomed polystyrene plate. The MNK1/2 enzyme was pre-incubated with the compound and substrate peptide for 5 minutes, and then ATP was added thereto. After addition of ATP, the kinase reaction was incubated at 25° C. for 120 minutes or 60 minutes. The reaction was subsequently terminated by adding 5 μl of EU3+ substrate antibody detection reagent and 5 μl of XL665 detection reagent, and incubating for another 60 minutes. The luminescent signal was detected with an EnVision microplate reader counter (Perkin Elmer), and the signal from 10-point dilution series of the compounds was used to calculate the compound concentration (IC50) required to achieve 50% inhibition of enzyme activity.
(§4) In this respect, IC50 values which are less than 0.01 μM were marked as “+++”, which are from 0.01 to 0.1 μM were marked as “++”, and which are greater than 0.1 and up to 10.0 μM were marked as “+”, and NA meant “not detected”.
(In general: TR-FRET usually uses a lanthanide donor and a delayed reading to cut background.)

The target of another assay is MNK2 (Homo sapiens, UniProt Q9HBH9). As to the kind of experiment: MNK biological enzyme assay (HTRF kinase assay), MNK2. The assay is classed as biochemical. Set-up: purchased ThermoFisher PV5607. As to conditions: 1 ng/μl MNK2, 1 μM STK1 peptide, 100 μM ATP. On the procedure:
as §2, §3, §4

T1 sequence (Q9BUB5 whole entry): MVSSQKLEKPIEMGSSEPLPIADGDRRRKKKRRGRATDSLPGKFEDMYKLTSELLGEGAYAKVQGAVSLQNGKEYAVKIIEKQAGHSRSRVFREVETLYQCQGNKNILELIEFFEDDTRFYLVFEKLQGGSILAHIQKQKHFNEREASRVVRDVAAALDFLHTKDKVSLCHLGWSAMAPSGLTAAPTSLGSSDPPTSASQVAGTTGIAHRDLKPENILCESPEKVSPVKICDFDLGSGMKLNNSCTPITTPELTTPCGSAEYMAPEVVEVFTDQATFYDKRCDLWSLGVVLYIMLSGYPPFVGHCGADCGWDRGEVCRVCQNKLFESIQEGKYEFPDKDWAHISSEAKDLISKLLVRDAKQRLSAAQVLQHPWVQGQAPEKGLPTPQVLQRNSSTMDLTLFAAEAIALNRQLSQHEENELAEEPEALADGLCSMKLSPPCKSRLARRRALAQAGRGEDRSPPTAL
MNK2, sequence (Q9HBH9 whole entry): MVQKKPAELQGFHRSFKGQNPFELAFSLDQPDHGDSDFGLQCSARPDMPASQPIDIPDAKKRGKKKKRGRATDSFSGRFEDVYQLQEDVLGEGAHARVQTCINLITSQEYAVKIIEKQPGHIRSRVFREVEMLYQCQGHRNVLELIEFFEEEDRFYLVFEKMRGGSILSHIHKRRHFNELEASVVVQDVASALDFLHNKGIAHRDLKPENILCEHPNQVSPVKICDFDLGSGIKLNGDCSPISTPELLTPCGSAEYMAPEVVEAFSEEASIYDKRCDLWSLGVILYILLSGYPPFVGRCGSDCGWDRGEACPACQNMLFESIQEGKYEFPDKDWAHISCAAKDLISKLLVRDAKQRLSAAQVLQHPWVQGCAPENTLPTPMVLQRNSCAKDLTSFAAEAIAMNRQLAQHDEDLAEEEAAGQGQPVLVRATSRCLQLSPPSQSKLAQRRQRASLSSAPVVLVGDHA

For the molecule `Cc1c2c(c(=O)n3c1C(=O)NC31CCCCC1)Nc1cc(N)ncc1C2` [Compound 2, 8′-amino-12′-methyl-6′,11′-dihydro-2′H-spiro[cyclohexane-1,3′-imidazole[1′,5′:1,6]pyrido[3,4-B][1,6]naphthyridine]-1′,5′-dione hydrochloride], the inhibition at 1 µM worked out at 97.2% against MNK1 [1] and 62% against STK17A/DRAK1. Besides, the Kd at STK17A/DRAK1 (dose response analysis, read-out: Kd of interaction with DRAK1) was determined as 370 nM. The results for the IC50 at MNK1 [2] and on MNK2 were 10 to 100 nM and under 10 nM, respectively.
